Consider eleven compounds from ChEMBL document CHEMBL1141658, “4-thiazolidinone--a biologically active scaffold” (Eur J Med Chem, 2008).

≈ marks a conversion by molar mass, not a printed value.

The subject of data set [1] is Rattus norvegicus. Put plainly: Antiinflammatory activity against carrageenan-induced edema in po dosed Albino rat. Type of data set: functional. On the technique in general: Carrageenan injected into the paw causes an acute inflammation.
Data set [2] deals with Mus musculus. Nature of the data set: Potentiation of pentobarbital-induced hypnosis in mouse assessed as sleeping time at 100 mg/kg relative to control. In kind it is functional.
Data set [3] concerns Alternaria alternata. Put plainly: Inhibition of Alternaria tenuis spore germination. Type of data set: functional.
In data set [4] the test system is Human immunodeficiency virus 1. Put plainly: Antiviral activity against HIV1 3B in human MT4 cells. Type of data set: functional, organism-based. The settings on record: Human immunodeficiency virus 1, 3B.
Data set [5] has as its target T1, Prostaglandin G/H synthase 2 (Mus musculus) (UniProt Q05769).
T1 sequence (whole entry): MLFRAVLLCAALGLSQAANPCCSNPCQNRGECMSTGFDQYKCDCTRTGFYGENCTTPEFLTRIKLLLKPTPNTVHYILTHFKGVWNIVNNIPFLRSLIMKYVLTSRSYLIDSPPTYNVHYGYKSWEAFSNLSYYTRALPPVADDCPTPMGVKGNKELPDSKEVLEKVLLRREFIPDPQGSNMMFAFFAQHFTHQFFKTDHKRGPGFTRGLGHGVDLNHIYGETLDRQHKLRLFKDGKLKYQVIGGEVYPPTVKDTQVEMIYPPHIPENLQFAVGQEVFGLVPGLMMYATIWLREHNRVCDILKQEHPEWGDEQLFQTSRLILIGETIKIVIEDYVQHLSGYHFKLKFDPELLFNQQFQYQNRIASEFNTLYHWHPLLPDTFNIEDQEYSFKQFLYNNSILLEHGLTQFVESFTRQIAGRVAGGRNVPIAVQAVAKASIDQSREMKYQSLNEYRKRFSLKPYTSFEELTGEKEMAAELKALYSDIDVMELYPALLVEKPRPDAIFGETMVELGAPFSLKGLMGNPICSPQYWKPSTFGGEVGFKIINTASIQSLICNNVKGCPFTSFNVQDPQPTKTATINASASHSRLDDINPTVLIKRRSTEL
Nature of the data set: Inhibition of COX2 in mouse J774 cells at 1 uM. In kind it is cell-based.

The target of data set [6] is T1, Prostaglandin G/H synthase 2 (Mus musculus). Put plainly: Inhibition of COX2 in mouse J774 cells at 10 uM. In kind it is cell-based.
Data set [7] concerns the target T2, Follicle-stimulating hormone receptor (Homo sapiens, UniProt P23945).
T2 sequence (P23945 whole entry): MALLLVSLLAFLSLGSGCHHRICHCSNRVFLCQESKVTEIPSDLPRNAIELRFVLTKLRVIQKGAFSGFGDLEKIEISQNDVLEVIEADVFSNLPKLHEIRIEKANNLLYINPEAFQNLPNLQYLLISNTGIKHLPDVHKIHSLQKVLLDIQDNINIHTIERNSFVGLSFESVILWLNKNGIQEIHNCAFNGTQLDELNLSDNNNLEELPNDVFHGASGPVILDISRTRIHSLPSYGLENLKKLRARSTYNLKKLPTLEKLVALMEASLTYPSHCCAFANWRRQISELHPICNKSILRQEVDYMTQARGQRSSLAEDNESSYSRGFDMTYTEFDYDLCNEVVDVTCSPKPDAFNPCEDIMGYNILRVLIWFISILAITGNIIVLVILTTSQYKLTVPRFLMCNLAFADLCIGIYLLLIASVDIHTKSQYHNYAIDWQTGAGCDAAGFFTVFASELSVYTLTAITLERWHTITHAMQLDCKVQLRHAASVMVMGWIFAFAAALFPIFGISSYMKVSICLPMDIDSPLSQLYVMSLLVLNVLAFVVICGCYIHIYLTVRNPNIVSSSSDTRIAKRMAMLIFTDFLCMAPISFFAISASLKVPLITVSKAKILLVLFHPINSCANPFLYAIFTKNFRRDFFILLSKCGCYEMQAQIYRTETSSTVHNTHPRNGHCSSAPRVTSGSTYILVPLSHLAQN
Nature of the data set: Agonist activity at human recombinant FSH receptor. In kind it is functional.

For data set [8], the system named is Candida albicans. Put plainly: Antifungal activity against Candida albicans by serial double dilution method. In kind it is functional.
For data set [9], the system named is Cryptococcus neoformans. Put plainly: Antifungal activity against Cryptococcus neoformans by serial double dilution method. Type of data set: functional.
The nature of data set [10]: Selectivity index, ratio of inhibition of human MT4 cells to EC50 for HIV1 3B. In kind it is toxicity, cell-based. The settings on record: read-out: Selectivity Index.

For `CC1SC(c2ccccc2F)N(c2ccc(Br)cc2C(=O)O)C1=O` (stereo not given), it took a dose of 100 mg/kg to reach the 50% effect level in [1] (ED50).

Turning to `O=C1CS/C(=N\c2ccccc2)N1c1ncccn1`, the Time in data set [2] was 98.6 min. For the same compound, the “inhibition (INH)” value in data set [3] is 100%.

Take `O=C1CS/C(=N\c2ccccc2)N1CCCN1CCOCC1`: the Time in [2] was determined as 98.6 min. Besides, in data set [3], the “inhibition (INH)” value was found to be 100%.

Take `CCCCC1C(=O)N(c2ccccc2)N(c2ccccc2)C1=O` [PHENYLBUTAZONE]: the ED50 in data set [1] came out at 94.4 mg/kg.

In turn, `O=C1CSC(c2c(Cl)cccc2Cl)N1Cc1ccco1` (stereo not given) came in with an EC50 in data set [4] of 204 nM.

Regarding `CCCN1C(=O)/C(=C2\C=CC(OC)=CC2)S/C1=N\c1ccccc1`, the inhibition in data set [5] was 35%; in data set [6], 55%.

As to `COc1ccc(C2SC(CC(=O)NCCC3=CCc4ccccc43)C(=O)N2c2ccc(C(N)=O)c(Cl)c2)cc1` (stereo not given), the EC50 in data set [7] was determined as 5 µM.

On to `CCCCCCCCCCCCN1C(=O)CSC12CCC(C(=O)C(N)Cc1ccccc1)CC2` (stereo not given), for which the MIC in data set [8] and in [9] was 50 µg/mL (≈ 103 µM) each time.

Turning to `CCN1C(=O)C(C)S/C1=N\c1nc2cc(Cl)ccc2s1` (stereo not given), the “inhibition (INH)” value in [3] was found to be 100%.

On to `CCN1C(=O)C(C)S/C1=N\c1nc2c(Cl)cccc2s1` (stereo not given), for which, in [3], the “inhibition (INH)” value is on record as 100%.

Consider `Cc1cccc(N2C(=O)CSC2c2c(Cl)cccc2Cl)n1` (stereo not given), for which the selectivity ratio in data set [10] was found to be 6470.

As a reminder, the ED50 is the dose that gives a 50% effect, or the effect in half of the subjects. A word on the EC50: it is the concentration at which the effect is half-maximal. The term inhibition denotes the drop in the measured response relative to a control, in per cent. Broadly, the MIC is the lowest concentration that inhibits growth of the organism. A higher MIC goes with a need for much substance.
